“And” between values parts separate entries of the source, which are not always exact repeats. Equal entries are not always repeated. Inconclusive results and toxic doses are left out.
Test system: P388 leukemia ip, CD2F1 mice, survival T/C
Assay: NCI In Vivo Anticancer Drug Screen. Data for tumor model P388 Leukemia (intraperitoneal) in CD2F1 (CDF1) mice
Settings: endpoint: median survival time, higher = longer survival
Outline: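 Mice carrying the transplanted tumor received test compound or vehicle. Survival was recorded in each group, and the value is the treated-group measurement divided by that of the vehicle-treated control group.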

[1] = dose: 25.0 mg/kg/injection, schedule: Q01DX005 (ip), vehicle: Klucel (hydroxypropylcellulose) (HPC)
[2] = dose: 50.0 mg/kg/injection, schedule: Q01DX005 (ip), vehicle: Klucel (hydroxypropylcellulose) (HPC)
[3] = dose: 100.0 mg/kg/injection, schedule: Q01DX005 (ip), vehicle: Klucel (hydroxypropylcellulose) (HPC)
[4] = dose: 200.0 mg/kg/injection, schedule: Q01DX005 (ip), vehicle: Klucel (hydroxypropylcellulose) (HPC)
[5] = dose: 60.0 mg/kg/injection, schedule: Q01DX005 (ip), vehicle: saline with Tween-80
[6] = dose: 240.0 mg/kg/injection, schedule: Q01DX005 (ip), vehicle: saline with Tween-80
[7] = dose: 50.0 mg/kg/injection, schedule: Q01DX005 (ip), vehicle: saline with Tween-80
[8] = dose: 100.0 mg/kg/injection, schedule: Q01DX005 (ip), vehicle: saline with Tween-80
[9] = dose: 50.0 mg/kg/injection, schedule: Q04DX003 (ip), vehicle: saline with Tween-80
[10] = dose: 100.0 mg/kg/injection, schedule: Q04DX003 (ip), vehicle: saline with Tween-80
[11] = dose: 200.0 mg/kg/injection, schedule: Q04DX003 (ip), vehicle: saline with Tween-80
[12] = dose: 25.0 mg/kg/injection, schedule: Q01DX009 (ip), vehicle: saline with Tween-80
[13] = dose: 120.0 mg/kg/injection, schedule: Q01DX005 (ip), vehicle: saline with Tween-80

Cn1c(=O)c2c(nc(/N=C/c3ccc([N+](=O)[O-])cc3)n2C)n(C)c1=O
T/C (dose: 100.0 mg/kg/injection, schedule: Q04DX003 (ip), vehicle: saline): 100 % of control
T/C (dose: 200.0 mg/kg/injection, schedule: Q04DX003 (ip), vehicle: saline): 86 % of control
T/C (dose: 400.0 mg/kg/injection, schedule: Q04DX003 (ip), vehicle: saline): 93 % of control

COc1ccc2ncc(COC(=O)NCCCl)c(COC(=O)NCCCl)c2c1
T/C [1]: 92 % of control
T/C [2]: 86 % of control
T/C [3]: 88 % of control
T/C [4]: 86 % of control

CC12CC(C(=O)O)C3(O)CC(C)(C1)CC(C)(C2)C3 (centres undefined) (tested in a mixture with another compound)
T/C (dose: 50.0 mg/kg/injection, schedule: Q01DX009 (ip), vehicle: Klucel (hydroxypropylcellulose) (HPC)): 109 % of control
T/C (dose: 100.0 mg/kg/injection, schedule: Q01DX009 (ip), vehicle: Klucel (hydroxypropylcellulose) (HPC)): 118 % of control

Cc1cc(C)c2c(n1)sc1c(=O)n(N)c(C)nc12
T/C [5]: 87 % of control
T/C [6]: 94 % of control and 95 % of control

O=C(Oc1c(Cc2ccccc2)c(=O)[nH]c2ccccc12)c1ccccc1
T/C (dose: 60.0 mg/kg/injection, schedule: Q01DX005 (ip), vehicle: Klucel (hydroxypropylcellulose) (HPC)): 90 % of control
T/C (dose: 120.0 mg/kg/injection, schedule: Q01DX005 (ip), vehicle: Klucel (hydroxypropylcellulose) (HPC)): 89 % of control

CN(C)C(C(N(C)C)=[N+](C)C)=[N+](C)C
T/C (dose: 12.5 mg/kg/injection, schedule: Q01DX009 (ip), vehicle: saline): 108 % of control and 109 % of control and 89 % of control
T/C (dose: 25.0 mg/kg/injection, schedule: Q01DX009 (ip), vehicle: saline): 110 % of control and 111 % of control
T/C (dose: 50.0 mg/kg/injection, schedule: Q01DX009 (ip), vehicle: saline): 100 % of control and 103 % of control and 88 % of control

O=C(NCCNC(=O)c1cccnc1)c1cccnc1
T/C [7]: 118 % of control
T/C [8]: 108 % of control
T/C (dose: 200.0 mg/kg/injection, schedule: Q01DX005 (ip), vehicle: saline with Tween-80): 111 % of control

COc1cc2c(cc1OC)C(Cc1ccccc1[N+](=O)[O-])=NCC2
T/C (dose: 25.0 mg/kg/injection, schedule: Q04DX003 (ip), vehicle: saline with Tween-80): 99 % of control
T/C [9]: 100 % of control
T/C [10]: 114 % of control
T/C [11]: 100 % of control

CCN(CC)CCNC(=O)c1ccc2c(c1O)C(=O)c1ccccc1C2=O
T/C [7]: 106 % of control
T/C [8]: 106 % of control

CC(=O)Nc1cccc([N+](=O)[O-])c1
T/C [9]: 110 % of control
T/C [10]: 110 % of control
T/C [11]: 110 % of control

CCCCC(CC)C(=O)OCCNC(=O)C(C)OC(=O)C(CC)CCCC (centres undefined)
T/C [1]: 105 % of control
T/C [2]: 102 % of control
T/C [3]: 95 % of control
T/C [4]: 105 % of control

COc1cc(C(C)(C)C)cc(OC)c1C(O)(c1c(OC)cc(C(C)(C)C)cc1OC)c1c(OC)cc(C(C)(C)C)cc1OC
T/C [12]: 121 % of control
T/C (dose: 100.0 mg/kg/injection, schedule: Q01DX009 (ip), vehicle: saline with Tween-80): 104 % of control

O=S(=O)(Nc1cccc(F)c1)c1ccc(F)cc1
T/C [5]: 103 % of control
T/C [13]: 99 % of control
T/C [6]: 93 % of control

O=C1C2CCSCN2C(=O)N1c1ccccc1 (centres undefined)
T/C [5]: 95 % of control
T/C [13]: 103 % of control
T/C [6]: 95 % of control

NC(=O)c1ccc2c(=O)c(C(=O)O)c[nH]c2c1
T/C (dose: 6.25 mg/kg/injection, schedule: Q01DX009 (ip), vehicle: saline with Tween-80): 92 % of control
T/C (dose: 12.5 mg/kg/injection, schedule: Q01DX009 (ip), vehicle: saline with Tween-80): 95 % of control
T/C [12]: 94 % of control

O=C(O)/C=N/NS(=O)(=O)c1cccc(S(=O)(=O)N/N=C/C(=O)O)c1
T/C (dose: 12.5 mg/kg/injection, schedule: Q01DX009 (ip), vehicle: water): 119 % of control

Source: PubChem BioAssay AID330 (DTP/NCI, 2004)
